We go through two compounds from patent publication US10677782B2, “Methods of determining interferon having direct inhibitory effects on tumors and uses thereof” (SUPERLAB FAR EAST LIMITED, priority 2013, dated 2020).

Experiment [1] relates to procaspase-3, cleaved caspase-3, procaspase-8, cleaved caspase-8, PARP in SW620 cells. Put plainly: Apoptosis-related molecular markers by Western Blot. It is filed as cell-based, human. As to conditions: 24 hr or 48 hr; interferons at 10 mcg/ml. The source says:
(§1) Thereafter, apoptosis-related molecular markers were monitored by Western Blot. The primary antibodies used were mouse monoclonal anti-beta-tubulin (1:2000, Cat #: CW0098A) and mouse monoclonal anti-GAPDH (1:2000, Cat #: CW0100A) (Kangwei Biotechnology, China); mouse monoclonal anti-PARP (1:1000, Cat #: se-2007, Santa Cruz Biotechnology, Inc.); rabbit monoclonal anti-procaspase 3 (1:1000, Cat #: 9665), and rabbit polyclonal anti-cleaved caspase 3 (1:1000, Cat #: 9661) (Cell Signaling Technology, USA); goat polyclonal anti-procaspase 8 (1:1000, Cat #: sc-6136, Santa Cruz Biotechnology, Inc); rabbit monoclonal anti-cleaved caspase 8 (1:1000, Cat #: 9496) (Cell Signaling Technology, USA).
(Immunoblotting shows a protein as a band on a membrane.)

The test system of experiment [2] is procaspase-3, cleaved caspase-3, procaspase-8, cleaved caspase-8, PARP in A549 cells. The description is as above. The experiment is classed as cell-based, human. The settings on record: 24 hr or 48 hr; interferons at 10 mcg/ml.
Source text: as §1

For experiment [3], the system named is human lung cancer SPC-A4 xenografts. Put plainly: Human lung cancer SPC-A4 xenografts in nude mice (Example 4). It is filed as in vivo. The settings on record: 5 mg/kg i.v. As to the method:
(§2) Before commencement of this study, the xenografts were passaged twice in nude mice. Under sterile conditions, well-grown tumors were cut into 1.5 mm^3 fragments and one such fragment was injected by trocar needle into the right flank of each study animal. […] Individual tumor size (length and width) was measured twice per week with microcalipers. Tumor volume (V) was calculated using the formula: V=(length×width^2)/2. Individual relative tumor volume (RTV) was calculated using the formula: RTV=Vt/V0, where Vt is the tumor volume on the day of measurement and V0 is the tumor volume on the day of first treatment. Therapeutic effect of the test article or control article was expressed in terms of TIC (%), using the formula: TIC (%) (mean RTV of the treated group/mean RTV of the control group)×100%; and in terms of % Inhibition, using the formula: % Inhibition=100%−T/C %.
The 1.5 mm^3 fragments were then used for s.c. implantation into the test animals.
(In general: Xenograft models place foreign cells or tissue in a host animal.)

The test system of experiment [4] is Human Cervical Cancer Hela Xenografts. In words: Human cervical cancer Hela xenografts in nude mice (Example 2). The experiment is classed as in vivo. As to conditions: 5 mg/kg i.v. On the procedure:
as §2
Then 1.5 mm^3 fragments were prepared for s.c. implantation into the animals.

In experiment [5] the test system is human hepatoma SMMC-7721. Put plainly: Human hepatoma SMMC-7721 xenografts in nude mice (Example 1). As to conditions: 5 mg/kg i.v. It is filed as in vivo. On the procedure: The test article was used without dilution. It was stored at 4° C. until thawed for injection.
The animals used were 4-6 weeks old male BALB/cA nu/nu mice, weighing about 23±2 g, obtained from the Shanghai Institute of Materia Medica (Shanghai, P.R. China). The study protocol was reviewed by the Committee on the Use and Care of Animals of Shanghai Institute of Materia Medica for compliance with regulations, and Committee approval was obtained prior to study initiation. Wherever possible, procedures used in this study were designed to avoid or minimize discomfort, distress, and pain to the animals. Animals that experience severe or chronic pain or distress that could not be relieved were painlessly euthanized, in accordance to regulations. Animals were housed 6 to a cage. They were ear-marked with ear hole punch identification. The room temperature was maintained at 25° C.±1° C. Lighting was set at 12 hr on and 12 hr off. Food was provided ad libitum. City tap water, filtered with a 5 micrometer (μm) filter, was provided to the animals ad libitum via water bottles. Neither the Study Director nor Huiyang Life Science and Technology Corp. was aware of any contaminant in the food or water that would interfere with or influence the intent and purpose of this study.
The test article (rSIFN-co) and the vehicle control were each administered intratumorally (i.t.). The test article was administered in a volume of 0.05 ml-0.15 ml per mouse per treatment, depending on the group to which the animal was assigned. […] Normal saline was injected in a volume of 0.15 ml per mouse, which was used as vehicle control.
Animals were assigned to treatment groups randomly. Initially, all animals were placed in one large animal cage. For assignment to the study, they were later separately housed, with 6 animals per cage per treatment group. Groups 1 and 2 are Control groups in which the animals were each administered the vehicle every other day after the first treatment. […] The animals in Groups 4, 5 and 6 were each given rSIFN-co every other day after the first treatment at 0.15 mg/mouse (Group 4) or 0.10 mg/mouse (Group 5) or 0.05 mg/mouse (Group 6), respectively. Tumor growth was monitored by measuring the length and width of each tumor twice a week during the course of the study. Each animal was also weighed twice a week during the course of the study.
as §2

Experiment [6] has as its system Human Colon Cancer HT-29 Xenografts. Put plainly: Human colon cancer HT-29 xenografts in nude mice (Example 3). It is filed as in vivo. The settings on record: 5 mg/kg i.v. As to the method:
as §2
Then, 1.5 mm^3 fragments were prepared for s.c. implantation into the test animals.

With `O=c1[nH]cc(F)c(=O)[nH]1` [5FU, reference compound], the “level of apoptosis-related molecular markers (procaspase-3, procaspase-8, PARP, cleaved caspase-3, cleaved caspase-8)” value in experiment [1] is “significant reduction of in the level of procaspase-3, procaspase-8 and PARP, but exhibited an enhanced level of cleaved caspase-3 and cleaved caspase-8”; in experiment [2] it was “significant reduction of in the level of procaspase-3, procaspase-8 and PARP, but exhibited an enhanced level of cleaved caspase-3 and cleaved caspase-8”.
For the compound `CO[C@@]12[C@H](COC(N)=O)C3=C(C(=O)C(C)=C(N)C3=O)N1C[C@@H]1N[C@@H]12` [MMC, Mitomycin C, reference compound], the “TV (mm^3, mean ± SD) (D0)” value in experiment [3] (day 0, start of treatment) came out at 166 ± 42 mm^3; in experiment [4] (day 0, start of treatment), 130 ± 28 mm^3; in experiment [5] (day 0, start of treatment), 125 ± 35 mm^3; in experiment [6] (day 0, start of treatment), 132 ± 22 mm^3. Further, the “TV (mm^3, mean ± SD) (D21)” value is reported as 1831 ± 540 mm^3 in experiment [3] (day 21) and 621 ± 247 mm^3 in experiment [5] (day 21). The “TV (mm^3, mean ± SD) (D28)” value in experiment [4] (day 28) is 676 ± 358 mm^3; in experiment [6] (day 28), 395 ± 95 mm^3.
